Values of other authors, collected in US20020042375A1, “Method of treating cancer” (priority 2000, published 2002).

Columns and labels:
[1] = tested on: prostate cancer cell; settings: in vitro
[2] = tested on: PC-3 cells
[3] = tested on: LNCaP cells; settings: exogenous administration
[4] = tested on: LNCaP prostate cancer cells
[5] = tested on: PC-3 prostate cancer cells; settings: PC-3 cells

SMILES | prostate cancer cell apoptosis [1] | also measured
COc1ccc2c(c1)c(CC(=O)O)c(C)n2C(=O)c1ccc(Cl)cc1 [indomethacin] | induce prostate cancer cell apoptosis | 
CN1C(C(=O)Nc2ccccn2)=C(O)c2ccccc2S1(=O)=O [piroxicam] | induce prostate cancer cell apoptosis | 
CC(C(=O)O)c1cccc(C(=O)c2ccccc2)c1 (centres unmarked) [ketoprofen] | induce prostate cancer cell apoptosis | 
CC(=O)Oc1ccccc1C(=O)O [aspirin] | induce prostate cancer cell apoptosis | 
CCCCC(C)(C)[C@H](O)/C=C/[C@H]1[C@H](O)CC(=O)[C@@H]1C/C=C\CCCC(=O)O [dimethylprostaglandin E2] |  | proliferation in vitro ([2]; exogenous administration, PC-3 cells): increased proliferation; proliferation in vitro [3]: increased proliferation
CS(=O)(=O)Nc1ccc([N+](=O)[O-])cc1OC1CCCCC1 [NS398] | induce prostate cancer cell apoptosis | apoptosis [4]: induce apoptosis; apoptosis [5]: induce apoptosis
CC(C(=O)O)c1ccc(-c2ccccc2)c(F)c1 (centres unmarked) [flurbiprofen] | induce prostate cancer cell apoptosis | PC-3 growth ([2]; in the dimethylprostaglandin E2 model): inhibited PC-3 growth
